In assay [1] the target is T1, MINA53 (Homo sapiens, UniProt Q8IUF8).
T1 construct: His6; made in house; host or cells: Escherichia coli BL21(DE3), pET-28b
Kind of assay: MINA53 inhibition assay by Rpl27a peptides (MALDI-TOF MS). Format: biochemical. The note with it: 10 μM 2OG; for IC50: 400 nM MINA53, 10 nM to 250 μM inhibitor Rpl peptide, 100 μM L-ascorbic acid, 10 μM ferrous ammonium sulfate, 50 mM HEPES pH 7.5, Rpl27a-His39 substrate, duplicate assays. Here is the method: (§1) Having shown that our Rpl peptides are not, at least efficient, ROX substrates, we explored them as inhibitors of the recombinant human ROXs using MALDI-TOF assays (Rpl8/27a-N^τ-Me, Rpl8/27a-N^π-Me, Rpl8/27a-1-TriaA, Rpl8/27a-4-TriaA and Rpl8/27a-TetrA were excluded from the panels for NO66 and MINA53, respectively, due to signal overlap between the two peptides in the assays). Synthetic Rpl peptides (5 or 50 μM) were incubated with MINA53/NO66 (400 nM), ferrous ammonium sulfate (10 μM) and 2OG (10 μM) for 10 minutes, after which time the Rpl27a-His39 and Rpl8-His216 substrates were added, respectively, and the reactions were carried out for 2 hours at room temperature (Fig. 4 and Fig. S9, ESI ^†).
Fig. 4 Results for MINA53 inhibition at (a) 5 μM and (b) 50 μM by Rpl27a peptides. Error bars reported as standard errors (SE) carried out in duplicate. See Fig. 2 for analogue structures.
(§2) IC50 values were determined for the peptides that manifested clear inhibition potency by varying the concentration of the Rpl peptide inhibitor from 10 nM to 250 μM (Fig. 5 and Table 1).
(§3) IC50 values for MINA53 inhibition by Rpl27a peptides and NO66 inhibition by Rpl8 peptides. Conditions: 400 nM MINA53/NO66, 10 nM to 250 μM inhibitor Rpl peptide, 100 μM L-ascorbic acid, 10 μM ferrous ammonium sulfate, 10 μM 2OG in 50 mM MES buffer (pH 7.0) for NO66 and 50 mM HEPES (pH 7.5) for MINA53
(§4) MINA53 and NO66 inhibition assays in the presence of Rpl27a31-49 and Rpl8_205-224 peptides, respectively, were performed under the following assay conditions: 400 nM MINA53/NO66, 5/50 μM inhibitor Rpl peptide, 100 μM LAA, 10 μM FAS, 10 μM 2OG in 50 mM MES buffer (pH 7.0) for NO66 and 50 mM HEPES buffer (pH 7.5) for MINA53.[24] After 10 minutes of preincubation 5 μM of substrate peptide was added and the reaction was incubated for 2 hours at room temperature. A positive control reaction containing enzyme and unmodified peptide substrate without any inhibitors was included. After 2 hours the reaction was stopped by addition of 20 μL of 10% (v/v) LC-MS grade formic acid (Fisher Scientific), mixed 1 : 1 with α-cyano-4-hydroxycinnamic acid (CHCCA) matrix dissolved in a mixture of H2O and MeCN (1 : 1, v/v), and loaded onto an MTP 384 polished steel target to be analyzed by MALDI-TOF MS. MINA53/NO66 residual activity was determined by calculating the relative integral of the […] peptide to a control reaction in absence of potential inhibitory peptides. Experiments were carried out in duplicate.

The target of assay [2] is T2, NO66 (Homo sapiens, UniProt Q9H6W3).
T2 construct: His6; made in house; host or cells: Escherichia coli BL21(DE3), pET-28b
T2 sequence (Q9H6W3 167-641): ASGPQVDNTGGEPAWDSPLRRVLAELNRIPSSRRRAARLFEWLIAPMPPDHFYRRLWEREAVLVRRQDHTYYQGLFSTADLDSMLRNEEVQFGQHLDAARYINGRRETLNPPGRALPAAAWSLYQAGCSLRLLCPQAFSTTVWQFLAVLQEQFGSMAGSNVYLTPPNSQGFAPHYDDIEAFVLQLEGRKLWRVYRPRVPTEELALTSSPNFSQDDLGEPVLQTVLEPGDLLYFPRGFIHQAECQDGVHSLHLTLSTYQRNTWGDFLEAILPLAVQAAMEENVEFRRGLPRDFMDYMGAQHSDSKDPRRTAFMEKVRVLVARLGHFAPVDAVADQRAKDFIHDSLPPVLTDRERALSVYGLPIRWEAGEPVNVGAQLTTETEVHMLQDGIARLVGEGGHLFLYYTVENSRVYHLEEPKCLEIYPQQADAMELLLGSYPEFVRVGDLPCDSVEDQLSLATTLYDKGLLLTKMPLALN
Kind of assay: NO66 inhibition assay by Rpl8 peptides (MALDI-TOF MS). Format: biochemical. The note with it: 10 μM 2OG; for IC50: 400 nM NO66, 10 nM to 250 μM inhibitor Rpl peptide, 100 μM L-ascorbic acid, 10 μM ferrous ammonium sulfate, 50 mM MES pH 7.0, Rpl8-His216 substrate, duplicate assays; for inhibition at 5 µM: 5 μM inhibitor Rpl8 peptide, 400 nM NO66, 100 μM LAA, 10 μM FAS, 50 mM MES pH 7.0, 10 min preincubation, then 5 μM Rpl8-His216 substrate, 2 hours, room temperature, duplicate. Here is the method:
as §1, §2, §3, §4
3. Inhibition supporting figure
Figure S9. Results from NO66 inhibition at A) 5 µM and B) 50 µM of Rpl8-based peptides. Error
bars are standard errors (SE) of duplicate analyses. […]

Square brackets hold non-standard residues; d marks the D form. Ends that are not written are not given here. Peptide text beside a SMILES is read from it. Aad = N[C@@H](CCCC(=O)O)C(=O)O

T1 sequence (Q8IUF8 26-464): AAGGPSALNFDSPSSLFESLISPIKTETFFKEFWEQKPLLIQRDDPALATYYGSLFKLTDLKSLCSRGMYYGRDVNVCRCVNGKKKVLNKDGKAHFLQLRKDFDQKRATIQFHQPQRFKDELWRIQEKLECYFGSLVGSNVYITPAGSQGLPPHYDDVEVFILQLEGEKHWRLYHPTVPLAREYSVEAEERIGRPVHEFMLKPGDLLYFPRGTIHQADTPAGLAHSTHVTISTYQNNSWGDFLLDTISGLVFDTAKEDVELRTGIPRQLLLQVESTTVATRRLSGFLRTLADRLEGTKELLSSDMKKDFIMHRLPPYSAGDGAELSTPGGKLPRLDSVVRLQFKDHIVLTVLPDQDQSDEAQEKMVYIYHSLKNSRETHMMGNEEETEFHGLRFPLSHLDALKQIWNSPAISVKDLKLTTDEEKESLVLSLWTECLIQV

In the case of GRGNAGGLQHHRINFDKYHP-NH2 [Rpl27a-Gln39], 390 ± 160 nM corresponded to half-maximal inhibition in assay [1] (IC50). Regarding `CC[C@H](C)[C@H](NC(=O)[C@H](CCCNC(=N)N)NC(=O)[C@H](Cc1c[nH]cn1)NC(=O)[C@H](Cc1c[nH]cn1)NC(=O)[C@H](CCCC(N)=O)NC(=O)[C@H](CC(C)C)NC(=O)CNC(=O)CNC(=O)[C@H](C)NC(=O)[C@H](CC(N)=O)NC(=O)CNC(=O)[C@H](CCCNC(=N)N)NC(=O)CN)C(=O)N[C@@H](CC(N)=O)C(=O)N[C@@H](Cc1ccccc1)C(=O)N[C@@H](CC(=O)O)C(=O)N[C@@H](CCCCN)C(=O)N[C@@H](Cc1ccc(O)cc1)C(=O)N[C@@H](Cc1c[nH]cn1)C(=O)N1CCC[C@H]1C(N)=O` [Rpl27a-hGln39] (H-GRGNAGGL[Aad](NH2)HHRINFDKYHP-NH2), the IC50 (as a rule, the concentration that gives 50% inhibition) in assay [1] was 1470 ± 270 nM. As to NPVEHPFGGGNNQHIGKPST-NH2 [Rpl8-Asn216], in assay [2], the IC50 amounted to 8860 ± 360 nM and the inhibition – broadly, how much of the control response was suppressed – at 5 µM is roughly 50%. As to GRGNAGGLNHHRINFDKYHP-NH2 [Rpl27a-Asn39], in assay [1], the IC50 came to 1020 ± 110 nM. For the same compound, in assay [1] (5 μM inhibitor Rpl27a peptide, 400 nM MINA53, 100 μM LAA, 10 μM FAS, 50 mM HEPES pH 7.5, 10 min preincubation, then 5 μM Rpl27a-His39 substrate, 2 hours, room temperature, duplicate), the “MINA53 inhibition at 5 μM (in words)” value is “displayed inhibition”. Besides, the “MINA53 inhibition at 50 μM (in words)” value in assay [1] (50 μM inhibitor Rpl27a peptide, 400 nM MINA53, 100 μM LAA, 10 μM FAS, 50 mM HEPES pH 7.5, 10 min preincubation, then 5 μM Rpl27a-His39 substrate, 2 hours, room temperature, duplicate) was “strong inhibition”. As to `CC[C@H](C)[C@H](NC(=O)[C@H](Cc1c[nH]cn1)NC(=O)[C@H](CCC(N)=O)NC(=O)[C@H](CCCC(N)=O)NC(=O)[C@H](CC(N)=O)NC(=O)CNC(=O)CNC(=O)CNC(=O)[C@H](Cc1ccccc1)NC(=O)[C@@H]1CCCN1C(=O)[C@H](Cc1c[nH]cn1)NC(=O)[C@H](CCC(=O)O)NC(=O)[C@@H](NC(=O)[C@@H]1CCCN1C(=O)[C@@H](N)CC(N)=O)C(C)C)C(=O)NCC(=O)N[C@@H](CCCCN)C(=O)N1CCC[C@H]1C(=O)N[C@@H](CO)C(=O)N[C@H](C(N)=O)[C@@H](C)O` [Rpl8-hGln216] (H-NPVEHPFGGGN[Aad](NH2)QHIGKPST-NH2; N-terminus assumed), in assay [2], the IC50 was found to be 11200 ± 400 nM and the inhibition at 5 µM was roughly 50%.
